Reference: patent publication US7455976B2, “Method of measuring oxidized LDL/β2-glycoprotein I complex occurring in the living body” (priority 2002, dated 2008)

Columns and labels:
[1] = target: T1, β2-GPI (Homo sapiens, UniProt P02749); assay: ELISA using a plate coated with the ligand, β2-GPI binding detected by anti-β2-GPI antibody; settings: immobilized lipid; for β2-GPI-binding(OD) w/Cof-22, value in parentheses / β2-GPI-binding(OD) w/EY2C9, value in parentheses / β2-GPI-binding(OD) w/WB-CAL-1, value in parentheses: not explained (method: presence or absence of β2-GPI); for β2-GPI-binding(OD) w/Cof-22: detection with Cof-22; for β2-GPI-binding(OD) w/Cof-22 / β2-GPI-binding(OD) w/EY2C9 / β2-GPI-binding(OD) w/WB-CAL-1: upper value of the pair; for β2-GPI-binding(OD) w/EY2C9: detection with EY2C9; for β2-GPI-binding(OD) w/WB-CAL-1: detection with WB-CAL-1
T1 construct: β2-GPI was purified from plasma in healthy persons; from tissue; host or cells: pooled human plasma from healthy persons
T1 sequence (P02749 20-345): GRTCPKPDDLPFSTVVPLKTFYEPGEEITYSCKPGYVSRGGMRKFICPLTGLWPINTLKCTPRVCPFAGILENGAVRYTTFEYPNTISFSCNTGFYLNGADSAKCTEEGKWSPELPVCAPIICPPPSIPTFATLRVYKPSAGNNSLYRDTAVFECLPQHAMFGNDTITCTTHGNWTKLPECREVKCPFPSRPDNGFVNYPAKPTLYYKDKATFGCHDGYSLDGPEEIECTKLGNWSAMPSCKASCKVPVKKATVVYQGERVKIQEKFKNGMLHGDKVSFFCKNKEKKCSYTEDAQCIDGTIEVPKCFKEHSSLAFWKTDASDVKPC
Method: (7) ELISA for Detection of Anti-β2-GPI/Lipid IgG Antibody
CL (derived from bovine heart, manufactured by Sigma), oxLig-1 or 9-COOH-22KC (50 μg/ml ethanol, 50 μl/well) was adsorbed by evaporation onto a polystyrene plate (Immulon 1B; Dynex Technologies Inc.), and this plate was blocked with 1% BSA. In each well, the purified monoclonal autoantibody or serum sample (100-fold dilution) was incubated for 1 hour in the presence or absence of β2-GPI (25 μg/ml), and then HRP-labeled anti-mouse IgG or anti-human IgG or IgM was added to each well.
The subsequent step was carried out according to the method described in the “ELISA for detection of β2-GPI/oxLDL complex”. The optical density (OD) of each sample was corrected by the average OD of the blank wells, and its antibody titer was calculated by using the positive standard in the living body. When the antibody titer in a sample was more than 3 times as high as the standard deviation of the mean of plasma samples from 50 healthy persons, the sample was expressed as positive.

[2] = target: T1, β2-GPI; assay: Ligand blotting analysis on a TLC plate; format: binding; settings: detection by Cof-22 antibody and EY2C9 antibody; FIG. 1
Method: FIG. 1 is a graph showing ligand blotting analysis of two ω-carbdxylmutants (oxLig-1 and 9-COOH-22KC) of oxysterol ester. The ligand developed on a TLC plate was stained with I2 vapor (A), and the ligand blotting was conducted by using anti-β2-GPI antibody (Cof-22 (B) and EY2C9 (C)).
(5) Ligand Blotting Analysis on a Thin-Layer Chromatography (TLC) Plate
For conducting TLC ligand blotting, the lipid was spotted on a Polygram silica gel G plate (manufactured by Machery-Nagel) and developed with chloroform/methanol (8/1, v/v). The ligand blotting analysis was conducted according to a method described in [reference 7]. That is, the plate was dried and blocked with PBS containing 1% bovine serum albumin (BSA), and then the plate was incubated for 1 hour together with the β2-GPI and anti-β2-GPI antibodies (Cof-22 and EY2C9). Then, the plate was incubated for 1 hour with horseradish peroxidase (HRP)-labeled anti-mouse IgG antibody or anti-human IgM antibody. Between each step, the plate was washed sufficiently with PBS. Coloration was conducted using H2O2 and 4-methoxy-1-naphthol. In a TLC plate of control, the separated ligand was stained with I2 vapor.

Row | SMILES | β2-GPI-binding(OD) w/Cof-22, value in parentheses [1] | β2-GPI-binding(OD) w/EY2C9, value in parentheses [1] | β2-GPI-binding(OD) w/WB-CAL-1, value in parentheses [1] | β2-GPI-binding(OD) w/Cof-22 [1] | β2-GPI-binding(OD) w/EY2C9 [1] | β2-GPI-binding(OD) w/WB-CAL-1 [1] | β2-GPI binding in ligand blotting [2]
1 | CC(C)CCC[C@@H](C)[C@H]1CC[C@H]2[C@@H]3C(=O)C=C4C[C@@H](OC(=O)CCCCCCCCC(=O)O)CC[C@]4(C)[C@H]3CC[C@]12C [oxLig-1, 7-ketocholesteryl-9-carboxynonanoate] | (0.041 +/− 0.001) OD | (0.013 +/− 0.001) OD | (0.013 +/− 0.004) OD | 1.194 +/− 0.099 OD | 0.878 +/− 0.031 OD | 0.441 +/− 0.007 OD | bound predominantly
2 | CC(C)CCC(=O)[C@@H](C)[C@H]1CC[C@H]2[C@@H]3CC=C4C[C@@H](OC(=O)CCCCCCCCC(=O)O)CC[C@]4(C)[C@H]3CC[C@]12C [9-COOH-22KC, 22-Ketocholesteryl-9-carboxynonanoate] | (0.067 +/− 0.013) OD | (0.046 +/− 0.008) OD | (0.031 +/− 0.011) OD | 0.217 +/− 0.016 OD | 0.130 +/− 0.024 OD | 0.063 +/− 0.004 OD | 
